In patent US9096624B2 (OSI Pharmaceuticals, LLC, priority 2009, dated 2015):

Tests used:
[1] = molecular target: T1, FAK (Homo sapiens, UniProt Q05397); assay: biochemical
[2] = molecular target: T1, FAK; assay: Cell-based capture ELISA for inhibition of FAK autophosphorylation [pY397] in MiaPaCa2 cells
Procedure: Cell-Based Assays for Inhibition of FAK Autophosphorylation: MiaPaCa2 and U87MG
ELISA kit from Invitrogen (KHO0441).
Reagents Provided in Biosource FAK [pY397]
The cells were then suspended in cell assay medium.

[3] = MIA-PaCa2 cells, + 50% mouse plasma (Table 3), read-out: Mean FAK Cell Mechanistic IC50 + 50% mP MIA-PaCa2
[4] = MIA-PaCa2 cells on fibronectin, 2 h, no plasma, read-out: Mean FAK Cell Mechanistic IC50 MIA-PaCa2
[5] = MIA-PaCa2 cells, + 50% human plasma, read-out: Mean FAK Cell Mechanistic IC50 + 50% hP MIA-PaCa2
[6] = MIA-PaCa2 cells, + 50% mouse plasma (Table 2), read-out: Mean FAK Cell Mechanistic IC50 + 50% mP MIA-PaCa2

T1 sequence (Q05397 whole entry): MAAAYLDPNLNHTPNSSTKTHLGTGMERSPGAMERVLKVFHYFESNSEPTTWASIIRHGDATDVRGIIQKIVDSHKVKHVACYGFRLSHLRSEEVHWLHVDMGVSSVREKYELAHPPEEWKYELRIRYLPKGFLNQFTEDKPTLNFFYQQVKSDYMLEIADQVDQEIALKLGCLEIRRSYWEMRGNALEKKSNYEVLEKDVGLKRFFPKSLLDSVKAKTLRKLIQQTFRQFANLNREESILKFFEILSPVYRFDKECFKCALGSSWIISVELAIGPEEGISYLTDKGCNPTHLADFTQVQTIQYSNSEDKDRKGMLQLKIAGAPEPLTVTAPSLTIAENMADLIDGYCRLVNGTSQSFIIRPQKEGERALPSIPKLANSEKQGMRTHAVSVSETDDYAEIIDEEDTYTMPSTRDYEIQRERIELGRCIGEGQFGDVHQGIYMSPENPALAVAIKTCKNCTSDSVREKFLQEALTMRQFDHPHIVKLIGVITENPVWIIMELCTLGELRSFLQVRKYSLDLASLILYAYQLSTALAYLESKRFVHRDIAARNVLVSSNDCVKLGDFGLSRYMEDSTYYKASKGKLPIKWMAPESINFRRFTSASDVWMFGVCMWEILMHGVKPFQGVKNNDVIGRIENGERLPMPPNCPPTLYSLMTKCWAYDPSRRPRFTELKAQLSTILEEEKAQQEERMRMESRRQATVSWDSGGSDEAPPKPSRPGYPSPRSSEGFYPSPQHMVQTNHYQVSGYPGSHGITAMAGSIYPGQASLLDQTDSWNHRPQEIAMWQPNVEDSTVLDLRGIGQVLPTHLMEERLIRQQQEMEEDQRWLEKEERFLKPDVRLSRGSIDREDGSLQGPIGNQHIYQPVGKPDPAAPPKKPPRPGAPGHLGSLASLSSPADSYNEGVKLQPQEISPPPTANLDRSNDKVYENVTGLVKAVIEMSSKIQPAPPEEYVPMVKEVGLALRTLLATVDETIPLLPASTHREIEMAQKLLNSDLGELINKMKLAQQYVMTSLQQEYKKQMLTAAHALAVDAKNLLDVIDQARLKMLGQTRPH

Compound | IC50 [1] | IC50 [2, 3] | IC50 [2, 4] | IC50 [2, 5] | IC50 [2, 6]
CCOP(=O)(Cc1ccc(Nc2ncc(C(F)(F)F)c(Nc3cccc4ccn(C)c(=O)c34)n2)cc1)OCC [Example 131, Diethyl [4-({4-[(2-methyl-1-oxo-1,2-dihydroisoquinolin-8-yl)amino]-5-(trifluoromethyl)pyrimidin-2-yl}amino)benzyl]phosphonate] | < 1 µM | < 1 µM |  |  | 
CCOP(=O)(Cc1ccc(Nc2ncc(C(F)(F)F)c(Nc3ccc(N4CCN(C(C)=O)CC4)c4c3C(=O)N(C)C4)n2)c(OC)c1)OCC [Example 223, Diethyl (4-{[4-{[7-(4-acetylpiperazin-1-yl)-2-methyl-3-oxo-2,3-dihydro-1H-isoindol-4-yl]amino}-5-(trifluoromethyl)pyrimidin-2-yl]amino}-3-methoxybenzyl)phosphonate] | < 1 µM | < 1 µM |  |  | 
CCOP(C)(=O)Cc1ccc(Nc2ncc(C(F)(F)F)c(Nc3ccc(-c4cnn(C)c4)c4c3C(=O)N(C)C4)n2)cc1 (stereo not drawn) [Example 63, Ethyl methyl(4-{[4-{[2-methyl-7-(1-methyl-1H-pyrazol-4-yl)-3-oxo-2,3-dihydro-1H-isoindol-4-yl]amino}-5-(trifluoromethyl)pyrimidin-2-yl]amino}benzyl)phosphinate] | < 1 µM |  | < 1 µM | < 1 µM | 
CCOP(=O)(OCC)C1CCC(c2ccc(Nc3nc(Nc4ccccc4OC)ncc3C(F)(F)F)c3c2CN(C)C3=O)CC1 (mixture of isomers) [Example 193, Diethyl {4-[7-({2-[(2-methoxyphenyl)amino]-5-(trifluoromethyl)pyrimidin-4-yl}amino)-2-methyl-1-oxo-2,3-dihydro-1H-isoindol-4-yl]cyclohexyl}phosphonate] | < 1 µM | < 1 µM |  |  | 
CCOP(=O)(O)Cc1ccc(Nc2ncc(C(F)(F)F)c(Nc3ccccc3C(=O)NC)n2)c(OC)c1 [Example 143, Ethyl hydrogen (3-methoxy-4-{[4-{[2-(methylcarbamoyl)phenyl]amino}-5-(trifluoromethyl)pyrimidin-2-yl]amino}benzyl)phosphonate] | < 1 µM | < 1 µM |  |  | 
CCOP(C)(=O)Cc1ccc(Nc2ncc(C(F)(F)F)c(Nc3ccccc3C(=O)NC)n2)c(OC)c1 (stereo not drawn) [Example 52, Ethyl (3-methoxy-4-{[4-{[2-(methylcarbamoyl)phenyl]amino}-5-(trifluoromethyl)pyrimidin-2-yl]amino}benzyl)methylphosphinate] | < 1 µM |  | < 1 µM | < 1 µM | 
CN(c1ncccc1CNc1nc(Nc2ccc(P(C)(C)=O)cc2)ncc1C(F)(F)F)S(C)(=O)=O [Example 14, N-[3-({[2-{[4-(Dimethylphosphoryl)phenyl]amino}-5-(trifluoromethyl)pyrimidin-4-yl]amino}methyl)pyridin-2-yl]-N-methylmethanesulfonamide] | < 1 µM |  | < 1 µM | < 1 µM | < 1 µM
CCOP(=O)(Cc1ccc(Nc2ncc(C(F)(F)F)c(Nc3cccc4[nH]cc(C)c(=O)c34)n2)cc1)OCC [Example 203, Diethyl [4-({4-[(3-methyl-4-oxo-1,4-dihydroquinolin-5-yl)amino]-5-(trifluoromethyl)pyrimidin-2-yl}amino)benzyl]phosphonate] | < 1 µM | < 1 µM |  |  | 
CNC(=O)c1ccccc1Nc1nc(Nc2ccc(P(C)(C)=O)cc2)ncc1C(F)(F)F [Example 18, 2-{[2-{[4-(Dimethylphosphoryl)phenyl]amino}-5-(trifluoromethyl)pyrimidin-4-yl]amino}-N-methylbenzamide] | < 1 µM |  | < 1 µM | < 1 µM | < 1 µM
CCOP(=O)(Cc1ccc(Nc2ncc(C(F)(F)F)c(Nc3ccc([C@H]4CC[C@H](N5CCN(C)CC5)CC4)c4c3C(=O)N(C)C4)n2)c(OC)c1)OCC [Example 96, Diethyl (3-methoxy-4-{[4-({2-methyl-7-[trans-4-(4-methylpiperazin-1-yl)cyclohexyl]-3-oxo-2,3-dihydro-1H-isoindol-4-yl}amino)-5-(trifluoromethyl)pyrimidin-2-yl]amino}benzyl)phosphonate] | < 1 µM |  |  |  | < 1 µM
CCOP(C)(=O)Cc1ccc(Nc2ncc(C(F)(F)F)c(Nc3ccc(C4CCC(O)CC4)c4c3C(=O)N(C)C4)n2)cc1 (stereo not drawn) [Example 79, Ethyl (4-{[4-{[7-(4-hydroxycyclohexyl)-2-methyl-3-oxo-2,3-dihydro-1H-isoindol-4-yl]amino}-5-(trifluoromethyl)pyrimidin-2-yl]amino}benzyl)methylphosphinate] | < 1 µM |  | < 1 µM | < 1 µM | 
CCOP(=O)(OCC)C(F)(F)c1ccc(Nc2ncc(C(F)(F)F)c(Nc3ccccc3C(=O)NC)n2)cc1 [Example 188, Diethyl [difluoro(4-{[4-{[2-(methylcarbamoyl)phenyl]amino}-5-(trifluoromethyl)-pyrimidin-2-yl]amino}phenyl)methyl]phosphonate] | < 1 µM | < 1 µM |  |  | 
CCC(C)OP(=O)(Cc1ccc(Nc2ncc(C(F)(F)F)c(NCc3cccnc3N(C)S(C)(=O)=O)n2)cc1)OC(C)CC (stereo not drawn) [Example 29, dibutan-2-yl [4-({4-[({2-[methyl(methylsulfonyl)amino]pyridin-3-yl}methyl)amino]-5-(trifluoromethyl)pyrimidin-2-yl}amino)benzyl]phosphonate] | < 1 µM |  | < 1 µM | 1 to 10 µM | 1 to 10 µM
CCOP(=O)(Cc1ccc(Nc2ncc(C(F)(F)F)c(Nc3ccc(C(=O)OC)c4c3C(=O)N(C)C4)n2)c(OC)c1)OCC [Example 119, Methyl 7-{[2-({4-[(diethoxyphosphoryl)methyl]-2-methoxyphenyl}amino)-5-(trifluoromethyl)pyrimidin-4-yl]amino}-2-methyl-1-oxo-2,3-dihydro-1H-isoindole-4-carboxylate] | < 1 µM | < 1 µM |  |  | 
CCOP(=O)(Cc1ccc(Nc2ncc(C(F)(F)F)c(NCc3cccc([S+](C)[O-])c3)n2)cc1)OCC (stereo not drawn) [Example 47, diethyl (4-{[4-{[3-(methylsulfinyl)benzyl]amino}-5-(trifluoromethyl)pyrimidin-2-yl]amino}benzyl)phosphonate] | < 1 µM |  |  |  | 1 to 10 µM
CCOP(=O)(Cc1ccc(Nc2ncc(C(F)(F)F)c(Nc3ccc(-c4cnn(C5CC(O)C5)c4)c4c3C(=O)N(C)C4)n2)c(OC)c1)OCC (stereo not drawn) [Example 100, Diethyl (4-{[4-({7-[1-(3-hydroxycyclobutyl)-1H-pyrazol-4-yl]-2-methyl-3-oxo-2,3-dihydro-1H-isoindol-4-yl}amino)-5-(trifluoromethyl)pyrimidin-2-yl]amino}-3-methoxybenzyl)phosphonate] | < 1 µM | < 1 µM |  |  | 
CCOP(=O)(Cc1ccc(Nc2ncc(C(F)(F)F)c(Nc3ccc(N4CCC(O)CC4)c4c3C(=O)N(C)C4)n2)c(OC)c1)OCC [Example 85, Diethyl (4-{[4-{[7-(4-hydroxypiperidin-1-yl)-2-methyl-3-oxo-2,3-dihydro-1H-isoindol-4-yl]amino}-5-(trifluoromethyl)pyrimidin-2-yl]amino}-3-methoxybenzyl)phosphonate] | < 1 µM |  |  |  | < 1 µM
CCOP(=O)(Cc1ccc(Nc2ncc(C(F)(F)F)c(Nc3ccc(-c4ccn(CCO)n4)c4c3C(=O)N(C)C4)n2)cc1)OCC [Example 142, Diethyl (4-{[4-({7-[1-(2-hydroxyethyl)-1H-pyrazol-3-yl]-2-methyl-3-oxo-2,3-dihydro-1H-isoindol-4-yl}amino)-5-(trifluoromethyl)pyrimidin-2-yl]amino}benzyl)phosphonate] | < 1 µM | < 1 µM |  |  | 
CCOP(C)(=O)Cc1ccc(Nc2ncc(C(F)(F)F)c(Nc3ccc(N4CCCCC4)c4c3C(=O)N(C)C4)n2)cc1 (stereo not drawn) [Example 82, Ethyl methyl(4-{[4-{[2-methyl-3-oxo-7-(piperidin-1-yl)-2,3-dihydro-1H-isoindol-4-yl]amino}-5-(trifluoromethyl)pyrimidin-2-yl]amino}benzyl)phosphinate] | < 1 µM |  | < 1 µM | < 1 µM | 
CCOP(=O)(Cc1ccc(Nc2ncc(C(F)(F)F)c(Nc3ccc(C4CCN(C)CC4)c4c3C(=O)N(C)C4)n2)cc1)OCC [Example 253, Diethyl (4-{[4-{[2-methyl-7-(1-methylpiperidin-4-yl)-3-oxo-2,3-dihydro-1H-isoindol-4-yl]amino}-5-(trifluoromethyl)pyrimidin-2-yl]amino}benzyl)phosphonate] | < 1 µM | < 1 µM |  |  | 
C=C(C)c1ccc(Nc2nc(Nc3ccc(CP(C)(=O)OCC)cc3)ncc2C(F)(F)F)c2c1CN(C)C2=O (stereo not drawn) [Example 68, Ethyl methyl(4-{[4-{[2-methyl-3-oxo-7-(prop-1-en-2-yl)-2,3-dihydro-1H-isoindol-4-yl]amino}-5-(trifluoromethyl)pyrimidin-2-yl]amino}benzyl)phosphinate] | < 1 µM |  | < 1 µM | 1 to 10 µM | 
COCCOP(=O)(Cc1ccc(Nc2ncc(C(F)(F)F)c(Nc3ccc([C@H]4CC[C@H](O)CC4)c4c3C(=O)N(C)C4)n2)c(OC)c1)OCCOC [Example 217, Bis(2-methoxyethyl) (4-{[4-{[7-(trans-4-hydroxycyclohexyl)-2-methyl-3-oxo-2,3-dihydro-1H-isoindol-4-yl]amino}-5-(trifluoromethyl)pyrimidin-2-yl]amino}-3-methoxybenzyl)phosphonate] | < 1 µM | < 1 µM |  |  | 
COc1cc(CP(=O)(OCC(F)(F)F)OCC(F)(F)F)ccc1Nc1ncc(C(F)(F)F)c(Nc2cccc3c2C(=O)N(C)C3)n1 [Example 124, Bis(2,2,2-trifluoroethyl) [3-methoxy-4-({4-[(2-methyl-3-oxo-2,3-dihydro-1H-isoindol-4-yl)amino]-5-(trifluoromethyl)pyrimidin-2-yl}amino)benzyl]phosphonate] | < 1 µM | < 1 µM |  |  | 
